Source: patent US9656988B2 (Pharmacyclics LLC, priority 2013, dated 2017)
Where two headings read alike, the source gives them in different places.

Target: BTK (Homo sapiens (Human), UniProt Q06187)
Test: Btk in vitro inhibitory activity (one of Method A TR-FRET, Method B electrophoretic mobility shift, Method C radiometric filter binding)
Assay type: biochemical
[1] = determined using one of the methods of Example 355a, 355b and 355c, read-out: BTK IC50

Chain of BTK (Q06187 whole entry): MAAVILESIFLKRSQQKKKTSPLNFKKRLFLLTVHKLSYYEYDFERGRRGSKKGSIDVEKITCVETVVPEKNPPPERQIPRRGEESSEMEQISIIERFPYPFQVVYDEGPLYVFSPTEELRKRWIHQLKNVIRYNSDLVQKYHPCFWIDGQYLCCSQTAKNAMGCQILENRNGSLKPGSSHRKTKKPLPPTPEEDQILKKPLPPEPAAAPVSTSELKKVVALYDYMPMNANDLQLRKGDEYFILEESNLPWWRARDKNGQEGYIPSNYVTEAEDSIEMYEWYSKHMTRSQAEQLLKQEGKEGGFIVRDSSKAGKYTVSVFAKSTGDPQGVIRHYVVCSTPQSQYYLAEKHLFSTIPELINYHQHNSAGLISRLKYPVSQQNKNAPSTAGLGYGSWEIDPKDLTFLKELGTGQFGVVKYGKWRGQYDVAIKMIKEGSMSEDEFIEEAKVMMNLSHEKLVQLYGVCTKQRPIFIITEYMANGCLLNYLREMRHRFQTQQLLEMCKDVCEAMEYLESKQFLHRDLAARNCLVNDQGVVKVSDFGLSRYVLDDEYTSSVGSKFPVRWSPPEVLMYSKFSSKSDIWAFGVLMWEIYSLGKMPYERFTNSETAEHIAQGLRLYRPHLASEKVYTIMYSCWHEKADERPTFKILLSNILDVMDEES

Compound | IC50 [1] [µM] | IC50 (Btk (IC50)) [µM] | IC50 (read-out: Btk (IC50)) [µM]
CC(C)(C)OC(=O)N1CC[C@@H](Nc2nnc(C(N)=O)c(Nc3ccc(C(=O)N4CCOCC4)cc3)n2)C1 [Example 68, (R)-tert-butyl 3-(6-carbamoyl-5-(4-(morpholine-4-carbonyl)phenylamino)-1,2,4-triazin-3-ylamino)pyrrolidine-1-carboxylate] | 0.1 to 1 |  | 
NC(=O)c1nnc(N[C@@H]2CCNC2)nc1Nc1ccc(C(=O)N2CCOCC2)cc1 [Example 69, (R)-5-(4-(morpholine-4-carbonyl)phenylamino)-3-(pyrrolidin-3-ylamino)-1,2,4-triazine-6-carboxamide] | 0.01 to 0.1 |  | 
CN(C/C=C/C(=O)N1CC[C@@H](Nc2nnc(C(N)=O)c(Nc3ccc(C(=O)N4CCOCC4)cc3)n2)C1)C1CC1 [Example 71, (R,E)-3-(1-(4-(cyclopropyl(methyl)amino)but-2-enoyl)pyrrolidin-3-ylamino)-5-(4-(morpholine-4-carbonyl)phenylamino)-1,2,4-triazine-6-carboxamide] | 0.01 to 0.1 |  | 
CC(C)(C)c1ccc(C(=O)N[C@@H]2CCCN(c3cnc(C(N)=O)c(Nc4ccc(C(=O)N5CCOCC5)cc4)n3)C2)cc1 [Example 73, (R)-5-(3-(4-tert-butylbenzamido)piperidin-1-yl)-3-(4-(morpholine-4-carbonyl)phenylamino)pyrazine-2-carboxamide] | < 0.01 |  | 
C=CC(=O)N1CCC[C@@H](N(C)c2cnc(C(N)=O)c(Nc3ccc(C(=O)N4CCOCC4)cc3)n2)C1 [Example 74, (R)-5-((1-acryloylpiperidin-3-yl)(methyl)amino)-3-(4-(morpholine-4-carbonyl)phenylamino)pyrazine-2-carboxamide] | < 0.01 |  | < 0.01
CN(C)C/C=C/C(=O)N1CCC[C@@H](N(C)c2cnc(C(N)=O)c(Nc3ccc(C(=O)N4CCOCC4)cc3)n2)C1 [Example 75, (R,E)-5-((1-(4-(dimethylamino)but-2-enoyl)piperidin-3-yl)(methyl)amino)-3-(4-(morpholine-4-carbonyl)phenylamino)pyrazine-2-carboxamide] | < 0.01 |  | 
CC(C)(C)c1ccc(C(=O)N[C@@H]2CCCN(c3cnc(C(N)=O)c(Nc4ccc(C(=O)N5CCOCC5)cc4)c3)C2)cc1 [Example 76, (R)-5-(3-(4-tert-butylbenzamido)piperidin-1-yl)-3-(4-(morpholine-4-carbonyl)phenylamino)picolinamide] | 0.1 to 1 |  | 
Cc1cc(Nc2cc(N3CCC[C@@H](NC(=O)c4ccc(C(C)(C)C)cc4)C3)cnc2C(N)=O)sn1 [Example 77, (R)-5-(3-(4-tert-butylbenzamido)piperidin-1-yl)-3-(3-methylisothiazol-5-ylamino)picolinamide] | 0.01 to 0.1 |  | 
NC(=O)c1nnc(N2CCC[C@@H](NC(=O)c3ccc(OCC(F)(F)F)cc3)C2)nc1Nc1ccc(C(=O)N2CCOCC2)cc1 [Example 86, (R)-5-(4-(morpholine-4-carbonyl)phenylamino)-3-(3-(4-(2,2,2-trifluoroethoxy)benzamido)piperidin-1-yl)-1,2,4-triazine-6-carboxamide] |  |  | < 0.01
CCOc1ccc(C(=O)N[C@@H]2CCCN(c3nnc(C(N)=O)c(Nc4ccc(C(=O)N5CCOCC5)cc4)n3)C2)cc1 [Example 88, (R)-3-(3-(4-ethoxybenzamido)piperidin-1-yl)-5-(4-(morpholine-4-carbonyl)phenylamino)-1,2,4-triazine-6-carboxamide] | < 0.01 |  | < 0.01
CCCOc1ccc(C(=O)N[C@@H]2CCCN(c3nnc(C(N)=O)c(Nc4ccc(C(=O)N5CCOCC5)cc4)n3)C2)cc1 [Example 89, (R)-5-(4-(morpholine-4-carbonyl)phenylamino)-3-(3-(4-propoxybenzamido)piperidin-1-yl)-1,2,4-triazine-6-carboxamide] | < 0.01 |  | < 0.01
Cc1ncc(C(=O)N[C@@H]2CCCN(c3nnc(C(N)=O)c(Nc4ccc(C(=O)N5CCOCC5)cc4)n3)C2)s1 [Example 93, (R)—N-(1-(6-carbamoyl-5-(4-(morpholine-4-carbonyl)phenylamino)-1,2,4-triazin-3-yl)piperidin-3-yl)-2-methylthiazole-5-carboxamide] |  |  | < 0.01
NC(=O)c1nnc(N2CCC[C@@H](NC(=O)c3nc4ccccc4s3)C2)nc1Nc1ccc(C(=O)N2CCOCC2)cc1 [Example 94, (R)—N-(1-(6-carbamoyl-5-(4-(morpholine-4-carbonyl)phenylamino)-1,2,4-triazin-3-yl)piperidin-3-yl)benzo[d]thiazole-2-carboxamide] |  |  | < 0.01
CCN(CC)C(=O)N[C@@H]1CCCN(c2nnc(C(N)=O)c(Nc3ccc(C(=O)N4CCOCC4)cc3)n2)C1 [Example 99, (R)-3-(3-(3,3-diethylureido)piperidin-1-yl)-5-(4-(morpholine-4-carbonyl)phenylamino)-1,2,4-triazine-6-carboxamide] |  |  | < 0.01

More lines, main results first:

IC50 [1] [µM] | IC50 (Btk (IC50)) [µM] | Compound | IC50 (read-out: Btk (IC50)) [µM]
< 0.01 |  | CN(C/C=C/C(=O)N1CCC[C@@H](Nc2nnc(C(N)=O)c(Nc3ccc(C(=O)N4CCOCC4)cc3)n2)C1)C1CC1 [Example 67, (R,E)-3-(1-(4-(cyclopropyl(methyl)amino)but-2-enoyl)piperidin-3-ylamino)-5-(4-(morpholine-4-carbonyl)phenylamino)-1,2,4-triazine-6-carboxamide] | 
0.01 to 0.1 | 0.01 to 0.1 | CC(C)(C)c1ccc(NC(=O)N[C@@H]2CCCN(c3nnc(C(N)=O)c(Nc4ccc(C(=O)N5CCOCC5)cc4)n3)C2)cc1 [Example 79, (R)-3-(3-(3-(4-tert-butylphenyl)ureido)piperidin-1-yl)-5-(4-(morpholine-4-carbonyl)phenylamino)-1,2,4-triazine-6-carboxamide] | 
0.01 to 0.1 | 0.01 to 0.1 | COc1ccc(NC(=O)N[C@@H]2CCCN(c3nnc(C(N)=O)c(Nc4ccc(C(=O)N5CCOCC5)cc4)n3)C2)cc1 [Example 80, (R)-3-(3-(3-(4-methoxyphenyl)ureido)piperidin-1-yl)-5-(4-(morpholine-4-carbonyl)phenylamino)-1,2,4-triazine-6-carboxamide] | 
0.01 to 0.1 | 0.01 to 0.1 | CN(C)C(=O)N[C@@H]1CCCN(c2nnc(C(N)=O)c(Nc3ccc(C(=O)N4CCOCC4)cc3)n2)C1 [Example 81, (R)-3-(3-(3,3-dimethylureido)piperidin-1-yl)-5-(4-(morpholine-4-carbonyl)phenylamino)-1,2,4-triazine-6-carboxamide] | 
0.01 to 0.1 | 0.01 to 0.1 | CC(C)C1CCN(C(=O)N[C@@H]2CCCN(c3nnc(C(N)=O)c(Nc4ccc(C(=O)N5CCOCC5)cc4)n3)C2)CC1 [Example 82, (R)-3-(3-(4-isopropylpiperidine-1-carboxamido)piperidin-1-yl)-5-(4-(morpholine-4-carbonyl)phenylamino)-1,2,4-triazine-6-carboxamide] | 
0.1 to 1 | 0.1 to 1 | NC(=O)c1nnc(N2CCC[C@@H](NC(=O)C(=O)N3CCCCC3)C2)nc1Nc1ccc(C(=O)N2CCOCC2)cc1 [Example 83, (R)-5-(4-(morpholine-4-carbonyl)phenylamino)-3-(3-(2-oxo-2-(piperidin-1-yl)acetamido)piperidin-1-yl)-1,2,4-triazine-6-carboxamide] | 
0.01 to 0.1 | 0.01 to 0.1 | NC(=O)c1nnc(N2CCC[C@@H](NC(=O)c3ccc4ccccc4n3)C2)nc1Nc1ccc(C(=O)N2CCOCC2)cc1 [Example 84, (R)—N-(1-(6-carbamoyl-5-(4-(morpholine-4-carbonyl)phenylamino)-1,2,4-triazin-3-yl)piperidin-3-yl)quinoline-2-carboxamide] | 
0.01 to 0.1 | 0.01 to 0.1 | NC(=O)c1nnc(N2CCC[C@@H](NC(=O)c3ccc4ncccc4c3)C2)nc1Nc1ccc(C(=O)N2CCOCC2)cc1 [Example 85, (R)—N-(1-(6-carbamoyl-5-(4-(morpholine-4-carbonyl)phenylamino)-1,2,4-triazin-3-yl)piperidin-3-yl)quinoline-6-carboxamide] | 
0.01 to 0.1 |  | CC(C)Oc1ccc(C(=O)N[C@@H]2CCCN(c3nnc(C(N)=O)c(Nc4ccc(C(=O)N5CCOCC5)cc4)n3)C2)cc1 [Example 90, (R)-5-(4-(morpholine-4-carbonyl)phenylamino)-3-(3-(4-isopropoxybenzamido)piperidin-1-yl)-1,2,4-triazine-6-carboxamide] | 0.01 to 0.1
0.01 to 0.1 | 0.01 to 0.1 | Cc1cc(C(=O)N[C@@H]2CCCN(c3nnc(C(N)=O)c(Nc4ccc(C(=O)N5CCOCC5)cc4)n3)C2)no1 [Example 91, (R)—N-(1-(6-carbamoyl-5-(4-(morpholine-4-carbonyl)phenylamino)-1,2,4-triazin-3-yl)piperidin-3-yl)-5-methylisoxazole-3-carboxamide] | 
0.01 to 0.1 |  | NC(=O)c1nnc(N2CCC[C@@H](NC(=O)c3cc(C4CC4)on3)C2)nc1Nc1ccc(C(=O)N2CCOCC2)cc1 [Example 95, (R)—N-(1-(6-carbamoyl-5-(4-(morpholine-4-carbonyl)phenylamino)-1,2,4-triazin-3-yl)piperidin-3-yl)-5-cyclopropylisoxazole-3-carboxamide] | 0.01 to 0.1
0.01 to 0.1 |  | NC(=O)c1nnc(N2CCC[C@@H](NC(=O)c3ccc(Oc4ccccc4)cc3)C2)nc1Nc1ccc(C(=O)N2CCOCC2)cc1 [Example 96, (R)-5-(4-(morpholine-4-carbonyl)phenylamino)-3-(3-(4-phenoxybenzamido)piperidin-1-yl)-1,2,4-triazine-6-carboxamide] | 
0.01 to 0.1 |  | NC(=O)c1nnc(N2CCC[C@@H](NC(=O)c3nc4ccccc4o3)C2)nc1Nc1ccc(C(=O)N2CCOCC2)cc1 [Example 97, (R)—N-(1-(6-carbamoyl-5-(4-(morpholine-4-carbonyl)phenylamino)-1,2,4-triazin-3-yl)piperidin-3-yl)benzo[d]oxazole-2-carboxamide] | 0.01 to 0.1
< 0.01 |  | NC(=O)c1nnc(N2CCC[C@@H](NC(=O)c3ccc4c(c3)nnn4C3CC3)C2)nc1Nc1ccc(C(=O)N2CCOCC2)cc1 [Example 102, (R)—N-(1-(6-carbamoyl-5-(4-(morpholine-4-carbonyl)phenylamino)-1,2,4-triazin-3-yl)piperidin-3-yl)-1-cyclopropyl-1H-benzo[d][1,2,3]triazole-5-carboxamide] | < 0.01
